Results from PubChem BioAssay (NCI).
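Grown in 96-well plates, cells were treated for 48 hours with each compound at five concentrations. Insufficient inhibition: endpoint recorded as highest concentration tested. TGI: total growth inhibition.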

How the values were obtained:
Assay in all cases: NCI anticancer screen, dose series, 48 h
[1] = test system: 786-0 renal
[2] = test system: A498 renal
[3] = test system: A549 NSCLC
[4] = test system: ACHN renal
[5] = test system: BT-549 breast
[6] = test system: CCRF-CEM leukemia
[7] = test system: COLO 205 colon
[8] = test system: DU-145 prostate
[9] = test system: EKVX NSCLC
[10] = test system: HCC-2998 colon
[11] = test system: HCT-116 colon
[12] = test system: HCT-15 colon
[13] = test system: HOP-62 NSCLC
[14] = test system: HOP-92 NSCLC
[15] = test system: HS 578T breast
[16] = test system: IGROV1 ovarian
[17] = test system: K-562 leukemia
[18] = test system: KM12 colon
[19] = test system: LOX IMVI melanoma
[20] = test system: M14 melanoma
[21] = test system: MALME-3M melanoma
[22] = test system: MCF7 breast
[23] = test system: MDA-MB-231 breast
[24] = test system: MDA-MB-435
[25] = test system: MDA-N
[26] = test system: MOLT-4 leukemia
[27] = test system: NCI-H226 lung
[28] = test system: NCI-H23 lung
[29] = test system: NCI-H460 lung
[30] = test system: NCI-H522 lung
[31] = test system: NCI/ADR-RES ovarian
[32] = test system: OVCAR-3 ovarian
[33] = test system: OVCAR-4 ovarian
[34] = test system: OVCAR-5 ovarian
[35] = test system: OVCAR-8 ovarian
[36] = test system: PC-3 prostate
[37] = test system: RPMI-8226 leukemia
[38] = test system: RXF 393 renal
[39] = test system: SF-268 CNS
[40] = test system: SF-295 CNS
[41] = test system: SF-539 CNS
[42] = test system: SK-MEL-2 melanoma
[43] = test system: SK-MEL-28 melanoma
[44] = test system: SK-MEL-5 melanoma
[45] = test system: SK-OV-3 ovarian
[46] = test system: SN12C renal
[47] = test system: SNB-19 CNS
[48] = test system: SNB-75 CNS
[49] = test system: SR leukemia
[50] = test system: SW-620 colon
[51] = test system: T-47D breast
[52] = test system: TK-10 renal
[53] = test system: U251 CNS
[54] = test system: UACC-257 melanoma
[55] = test system: UACC-62 melanoma
[56] = test system: UO-31 renal
[57] = test system: CAKI-1 renal
[58] = test system: HL-60(TB) leukemia
[59] = test system: HT29 colon

Measured: TGI

Nc1ncnc2c1ncn2[C@@H]1C[C@H](NO)[C@@H](O)[C@H]1O
not listed: [57] | [58] | [59]
> 100 µM: all other assays above

O=C1/C(=C/c2ccc(OC(=O)c3ccc(Cl)cc3)cc2)CCC/C1=C\c1ccc(OC(=O)c2ccc(Cl)cc2)cc1
60.8 µM: [48]
not listed: [2] | [17] | [21] | [27] | [38] | [40] | [45]
> 100 µM: all other assays above

N=C(N)SCCN1CCCCC1
64.9 µM: [5]
24.3 µM: [30]
32.6 µM: [38]
17 µM: [42]
46.3 µM: [58]
32.1 µM: [21]
44.6 µM: [23]
48.4 µM: [19]
62.1 µM: [17]
44 µM: [53]
55.2 µM: [55]
50.3 µM: [20]
85.6 µM: [51]
45.8 µM: [36]
47.7 µM: [27]
94.1 µM: [48]
73.4 µM: [46]
58 µM: [26]
34.3 µM: [22]
40.2 µM: [37]
60.1 µM: [49]
58.2 µM: [15]
41.6 µM: [54]
52.7 µM: [24]
64.7 µM: [8]
72.9 µM: [57]
84.1 µM: [41]
88.8 µM: [43]
51.5 µM: [1]
43.9 µM: [32]
not listed: [6] | [10] | [47]
> 100 µM: all other assays above

C=C(C[C@@H](O)[C@H](C)NC(=O)OCc1ccccc1)C(=O)OC(C)(C)C
67.3 µM: [51]
61.7 µM: [6]
not listed: [1] | [38]
> 100 µM: all other assays above

CCNC1=C(NC(=O)c2ccc(OC)cc2)C(=O)c2ccccc2C1=O
99.5 µM: [31]
31.1 µM: [24]
87.7 µM: [32]
48 µM: [54]
88.2 µM: [38]
55.9 µM: [20]
50.9 µM: [21]
76.9 µM: [59]
not listed: [2] | [19] | [42] | [56] | [57]
> 100 µM: all other assays above

Cc1ccc(C2=Nn3c(nc4sc5c(c4c3=O)CCCC5)SC2)cc1
not listed: [20] | [42] | [47]
> 100 µM: all other assays above

O=C1Nc2ccccc2/C1=N/N1C(=O)/C(=C/c2ccccc2S)N=C1c1ccccc1
81.8 µM: [51]
not listed: [27]
> 100 µM: all other assays above
